Reference: patent publication US4616087A, “2,5-bis alkyl sulfonyl and 2,5-bis alkyl thio substituted-pyridines” (The Dow Chemical Company, priority 1982, dated 1986)

Test system: rhinovirus type 1A (RV-1A), rhinovirus type 2 (RV-2) or Coxsackie A21 virus (Cox A21)
Assay: Tissue Culture testing, antiviral activity (virus not specified)
Format: cell-based
Settings: HeLa cells; qualitative
Procedure: Monolayered HeLa cells in 16 millimeter (mm) tissue culture dishes were treated with 1 ml of culture medium (Eagles medium supplemented with fetal calf serum) containing subject compound at an appropriate concentration or containing no compound at all. Culture media such as those described herein are more fully described in standard texts, as for example, Kuchler's Biochemical Methods in Cell Culture and Virology, Dowden, Hutchinson and Ross, Inc., Stroudsberg, PA (1977). Following treatment, cells were challenged with 0.05 ml of rhinovirus type 1A (RV-1A), rhinovirus type 2 (RV-2) or Coxsackie A21 virus (Cox A21) in culture medium. Some of the compounds were also tested against rhinovirus type 5 (RV-5), rhinovirus type 8 (RV-8) or rhinovirus type 64 (RV-64). Cell controls received no viruses.

Row | Compound | antiviral activity in the Tissue Culture testing
1 | CC(=O)c1ccc(Oc2ccc(S(=O)(=O)C(C)C)cn2)cc1 [1-(4-((5-((1-methylethyl)sulfonyl)-2-pyridinyl)oxy)phenyl)ethanone] | exhibiting antiviral activity
2 | CC(=O)c1ccc(Oc2ccc(S(C)(=O)=O)cn2)cc1 [1-(4-((5-(methylsulfonyl)-2-pyridinyl)oxy)phenyl)ethanone] | exhibiting antiviral activity
3 | CCS(=O)(=O)c1cccnc1Oc1ccc(Cl)c(Cl)c1 [2-(3,4-dichlorophenoxy)-3-(ethylsulfonyl)pyridine] | exhibiting antiviral activity
4 | O=S(=O)(Cc1ccccc1)c1ccc(Oc2ccc(Cl)c(Cl)c2)nc1 [2-(3,4-dichlorophenoxy)-5-((phenylmethyl)sulfonyl)pyridine] | exhibiting antiviral activity
5 | O=S(=O)(c1ccc(Oc2ccc(Cl)c(Cl)c2)nc1)C1CCCCC1 [2-(3,4-dichlorophenoxy)-5-(cyclohexylsulfonyl)pyridine] | exhibiting antiviral activity
6 | CCS(=O)(=O)c1ccc(Oc2ccc(Cl)c(Cl)c2)nc1 [2-(3,4-dichlorophenoxy)-5-(ethylsulfonyl)pyridine] | exhibiting antiviral activity
7 | CS(=O)(=O)c1ccc(Oc2ccc(Cl)c(Cl)c2)nc1 [2-(3,4-dichlorophenoxy)-5-(methylsulfonyl)pyridine] | exhibiting antiviral activity
8 | CCCCCCS(=O)(=O)c1ccc(Oc2ccc(Cl)c(Cl)c2)nc1 [2-(3,4-dichlorophenoxy)-5-(n-hexylsulfonyl)pyridine] | exhibiting antiviral activity
9 | CS(=O)(=O)c1ccc(Oc2cccc(Br)c2)nc1 [2-(3-bromophenoxy)-5-(methylsulfonyl)pyridine] | exhibiting antiviral activity
10 | CC(C)(C)c1ccc(Oc2ccc(S(C)(=O)=O)cn2)cc1 [2-(4-(1,1-dimethylethyl)phenoxy)-5-(methylsulfonyl)pyridine] | exhibiting antiviral activity
11 | CSc1ccc(Oc2ccc(S(C)(=O)=O)cn2)cc1 [2-(4-(methylthio)phenoxy)-5-(methylsulfonyl)pyridine] | exhibiting antiviral activity
12 | CC(C)S(=O)(=O)c1ccc(Oc2ccc(Br)cc2)nc1 [2-(4-bromophenoxy)-5-((1-methylethyl)sulfonyl)pyridine] | exhibiting antiviral activity
13 | O=S(=O)(Cc1ccccc1)c1ccc(Oc2ccc(Br)cc2)nc1 [2-(4-bromophenoxy)-5-((phenylmethyl)sulfonyl)pyridine] | exhibiting antiviral activity
14 | O=S(=O)(c1ccc(Oc2ccc(Br)cc2)nc1)C1CCCCC1 [2-(4-bromophenoxy)-5-(cyclohexylsulfonyl)pyridine] | exhibiting antiviral activity
15 | CS(=O)(=O)c1ccc(Oc2ccc(Br)cc2)nc1 [2-(4-bromophenoxy)-5-(methylsulfonyl)pyridine] | exhibiting antiviral activity
16 | O=S(=O)(c1ccccc1)c1ccc(Oc2ccc(Br)cc2)nc1 [2-(4-bromophenoxy)-5-(phenylsulfonyl)pyridine] | exhibiting antiviral activity
17 | CCS(=O)(=O)c1ccc(Oc2ccc(Cl)cc2)nc1 [2-(4-chlorophenoxy)-5-(ethylsulfonyl)pyridine] | exhibiting antiviral activity
18 | CS(=O)(=O)c1ccc(Oc2ccc(Cl)cc2)nc1 [2-(4-chlorophenoxy)-5-(methylsulfonyl)pyridine] | exhibiting antiviral activity
19 | CS(=O)(=O)c1ccc(Oc2cccc(C#N)c2)nc1 [3-((5-(methylsulfonyl)-2-pyridinyl)oxy)benzonitrile] | exhibiting antiviral activity
20 | CS(=O)(=O)c1ccc(Oc2ccc(C#N)cc2)nc1 [4-((5-(methylsulfonyl)-2-pyridinyl)oxy)benzonitrile] | exhibiting antiviral activity
21 | CCS(=O)(=O)c1ccc(Oc2cc(Cl)c(Cl)cc2Cl)nc1 [5-(ethylsulfonyl)-2-(2,4,5-trichlorophenoxy)pyridine] | exhibiting antiviral activity
22 | CCS(=O)(=O)c1ccc(Oc2ccc(Oc3ccccc3)cc2)nc1 [5-(ethylsulfonyl)-2-(4-phenoxyphenoxy)pyridine] | exhibiting antiviral activity
23 | CS(=O)(=O)c1ccc(Oc2ccc(Oc3ccccc3)cc2)nc1 [5-(methylsulfonyl)-2-(4-phenoxyphenoxy)pyridine] | exhibiting antiviral activity
24 | CS(=O)(=O)c1cccnc1Oc1ccc(C(=O)c2ccccc2)cc1 [(4-((3-(methylsulfonyl)-2-pyridinyl)oxy)phenyl)phenylmethanone] | exhibiting antiviral activity
25 | CC(C)S(=O)(=O)c1ccc(Oc2ccc(C(=O)c3ccccc3)cc2)nc1 [(4-((5-((1-methylethyl)sulfonyl)-2-pyridinyl)oxy)phenyl)phenylmethanone] | exhibiting antiviral activity
26 | O=C(c1ccccc1)c1ccc(Oc2ccc(S(=O)(=O)C3CCCCC3)cn2)cc1 [(4-((5-(cyclohexylsulfonyl)-2-pyridinyl)oxy)phenyl)phenylmethanone] | exhibiting antiviral activity
27 | CCS(=O)(=O)c1ccc(Oc2ccc(C(=O)c3ccccc3)cc2)nc1 [(4-((5-(ethylsulfonyl)-2-pyidinyl)oxy)phenyl)phenylmethanone] | exhibiting antiviral activity
28 | CS(=O)(=O)c1ccc(Oc2ccc(C(=O)c3ccccc3)cc2)nc1 [(4-((5-(methylsulfonyl)-2-pyridinyl)oxy)phenyl)phenylmethanone] | exhibiting antiviral activity
29 | CCCCCCS(=O)(=O)c1ccc(Oc2ccc(C(=O)c3ccccc3)cc2)nc1 [(4-((5-(n-hexylsulfonyl)-2-pyridinyl)oxy)phenyl)phenylmethanone] | exhibiting antiviral activity
